Patent US12636285B2 (ViiV Healthcare Company, priority 2019, dated 2026)
Where a name gives a salt, the structure may show the parent alone.

Columns and labels:
Solubility in water = type: physicochemical
Excerpt: The cabotegravir tablet contains cabotegravir, as cabotegravir sodium. […] The tablet film-coating contains hypromellose, polyethylene glycol, and titanium dioxide.

[1] = Drug interaction studies with oral rilpivirine
[2] = Drug interaction studies with oral cabotegravir; settings: cabotegravir 30 mg once daily; No Effect = 1.00
[3] = Established and other potentially significant drug interactions (Table 5); settings: trial-based or predicted
[4] = rilpivirine 150 mg once daily, No Effect = 1.00
[5] = rilpivirine 25 mg once daily, No Effect = 1.00
[6] = rilpivirine 75 mg once daily, No Effect = 1.00

With `C[C@H]1CO[C@@H]2Cn3cc(C(=O)NCc4ccc(F)cc4F)c(=O)c(O)c3C(=O)N12` [Cabotegravir sodium] the solubility in water (Solubility in water) was “slightly soluble”.

With `CO[C@H]1/C=C/O[C@@]2(C)Oc3c(C)c(O)c4c(O)c(c(/C=N/N5CCN(C)CC5)c(O)c4c3C2=O)NC(=O)/C(C)=C\C=C\[C@H](C)[C@H](O)[C@@H](C)[C@@H](O)[C@@H](C)[C@H](OC(C)=O)[C@@H]1C` [Rifampin] the “Geometric Mean Ratio of coadministered drug AUC with/without EDURANT” value [1, 4] was 0.99 and the “Geometric Mean Ratio of coadministered drug Cmax with/without EDURANT” value [1, 4] was 1.02.

With `Cc1ncc2n1-c1ccc(Cl)cc1C(c1ccccc1F)=NC2` [Midazolam] the “Geometric Mean Ratio of AUC of coadministered drug with/without cabotegravir” value [2] was 1.10 and the “Geometric Mean Ratio of Cmax of coadministered drug with/without cabotegravir” value [2] was 1.09.

In the case of Lopinavir/ritonavir, the “Geometric Mean Ratio of coadministered drug AUC with/without EDURANT” value [1, 4] is reported as 0.99, the “Geometric Mean Ratio of coadministered drug Cmax with/without EDURANT” value [1, 4] is reported as 0.96 and the “Geometric Mean Ratio of coadministered drug Cmin with/without EDURANT” value [1, 4] is reported as 0.89. For the same molecule, the “Geometric Mean Ratio of rilpivirine AUC with/without coadministered drug” value [1, 4] was 0.99, the “Geometric Mean Ratio of rilpivirine Cmax with/without coadministered drug” value [1, 4] was 0.96 and the “Geometric Mean Ratio of rilpivirine Cmin with/without coadministered drug” value [1, 4] was 0.89.

With `CN(C)C(=N)N=C(N)N` [Metformin] the “Geometric Mean Ratio of coadministered drug AUC with/without EDURANT” value [1, 5] was 0.97 and the “Geometric Mean Ratio of coadministered drug Cmax with/without EDURANT” value [1, 5] was 1.02.

In the case of `C[C@H]1O[C@@H](O[C@H]2[C@@H](O)C[C@H](O[C@H]3[C@@H](O)C[C@H](O[C@H]4CC[C@@]5(C)[C@H](CC[C@@H]6[C@@H]5C[C@@H](O)[C@]5(C)[C@@H](C7=CC(=O)OC7)CC[C@]65O)C4)O[C@@H]3C)O[C@@H]2C)C[C@H](O)[C@@H]1O` [Digoxin], the “Geometric Mean Ratio of coadministered drug AUC with/without EDURANT” value [1, 5] is reported as 0.98 and the “Geometric Mean Ratio of coadministered drug Cmax with/without EDURANT” value [1, 5] is reported as 1.06.

For `CO[C@H]1/C=C/O[C@@]2(C)Oc3c(C)c(O)c4c(c3C2=O)C2=NC3(CCN(CC(C)C)CC3)NC2=C(NC(=O)/C(C)=C\C=C\[C@H](C)[C@H](O)[C@@H](C)[C@@H](O)[C@@H](C)[C@H](OC(C)=O)[C@@H]1C)C4=O` [Rifabutin], the “Effect on Concentration” value ([3]; with antimycobacterial rifabutin) was “↔Rifabutin”.

With `C#C[C@]1(O)CC[C@H]2[C@@H]3CCC4=CC(=O)CC[C@@H]4[C@H]3CC[C@@]21CC` [Levonorgestrel] the “Geometric Mean Ratio of AUC of coadministered drug with/without cabotegravir” value [2] was 1.12, the “Geometric Mean Ratio of Cmax of coadministered drug with/without cabotegravir” value [2] was 1.05 and the “Geometric Mean Ratio of Cτ or C24 of coadministered drug with/without cabotegravir” value [2] was 1.07.

In the case of `CC(=O)Nc1ccc(O)cc1` [Acetaminophen], the “Geometric Mean Ratio of coadministered drug AUC with/without EDURANT” value [1, 4] is reported as 0.91 and the “Geometric Mean Ratio of coadministered drug Cmax with/without EDURANT” value [1, 4] is reported as 0.97.

With `CCCc1nn(C)c2c(=O)[nH]c(-c3cc(S(=O)(=O)N4CCNCC4)ccc3OCC)nc12` [N-desmethyl-sildenafil] the “Geometric Mean Ratio of coadministered drug AUC with/without EDURANT” value [1, 6] was 0.92 and the “Geometric Mean Ratio of coadministered drug Cmax with/without EDURANT” value [1, 6] was 0.90.

In the case of `CO[C@H]1/C=C/O[C@@]2(C)Oc3c(C)c(O)c4c(O)c(c(/C=N/N5CCN(C)CC5)c(O)c4c3C2=O)NC(=O)/C(C)=C\C=C\[C@H](C)[C@H](O)[C@@H](C)[C@@H](O)[C@@H](C)[C@H](O)[C@@H]1C` [25-desacetylrifampin], the “Geometric Mean Ratio of coadministered drug AUC with/without EDURANT” value [1, 4] is reported as 0.91 and the “Geometric Mean Ratio of coadministered drug Cmax with/without EDURANT” value [1, 4] is reported as 1.00.

With `Cc1nnc(C(=O)NC(C)(C)c2nc(C(=O)NCc3ccc(F)cc3)c(O)c(=O)n2C)o1` [Raltegravir] the “Geometric Mean Ratio of coadministered drug AUC with/without EDURANT” value [1, 5] was 1.09, the “Geometric Mean Ratio of coadministered drug Cmax with/without EDURANT” value [1, 5] was 1.10 and the “Geometric Mean Ratio of coadministered drug Cmin with/without EDURANT” value [1, 5] was 1.27.

For `CC(=O)N1CCN(c2ccc(OCC3COC(Cn4ccnc4)(c4ccc(Cl)cc4Cl)O3)cc2)CC1` (stereo not drawn) [Ketoconazole], the “Geometric Mean Ratio of coadministered drug AUC with/without EDURANT” value [1, 4] was 0.76, the “Geometric Mean Ratio of coadministered drug Cmax with/without EDURANT” value [1, 4] was 0.85 and the “Geometric Mean Ratio of coadministered drug Cmin with/without EDURANT” value [1, 4] was 0.34.

In the case of `CCC(=O)C(CC(C)N(C)C)(c1ccccc1)c1ccccc1` (stereo not drawn) [Methadone], the “rilpivirine Cmin with/without coadministered drug” value ([1]; rilpivirine 25 mg once daily, comparison based on historic controls) is reported as “↔^b” and the “Effect on Concentration” value ([3]; with narcotic analgesic methadone) is reported as “↓Methadone”.

In the case of `C#C[C@]1(O)CC[C@H]2[C@@H]3CCC4=CC(=O)CC[C@@H]4[C@H]3CC[C@@]21C` [Norethindrone], the “Geometric Mean Ratio of coadministered drug AUC with/without EDURANT” value [1, 5] is reported as 0.89, the “Geometric Mean Ratio of coadministered drug Cmax with/without EDURANT” value [1, 5] is reported as 0.94 and the “Geometric Mean Ratio of coadministered drug Cmin with/without EDURANT” value [1, 5] is reported as 0.99.

With `C#C[C@]1(O)CC[C@H]2[C@@H]3CCc4cc(O)ccc4[C@H]3CC[C@@]21C` [Ethinyl estradiol] the “Geometric Mean Ratio of coadministered drug AUC with/without EDURANT” value [1, 5] was 1.14, the “Geometric Mean Ratio of coadministered drug Cmax with/without EDURANT” value [1, 5] was 1.17 and the “Geometric Mean Ratio of coadministered drug Cmin with/without EDURANT” value [1, 5] was 1.09. For the same molecule, the “Geometric Mean Ratio of AUC of coadministered drug with/without cabotegravir” value [2] was 1.02, the “Geometric Mean Ratio of Cmax of coadministered drug with/without cabotegravir” value [2] was 0.92 and the “Geometric Mean Ratio of Cτ or C24 of coadministered drug with/without cabotegravir” value [2] was 1.00.

With `CC(C)OC(=O)OCOP(=O)(CO[C@H](C)Cn1cnc2c(N)ncnc21)OCOC(=O)OC(C)C` [Tenofovir disoproxil fumarate] the “Geometric Mean Ratio of coadministered drug AUC with/without EDURANT” value [1, 4] was 1.23, the “Geometric Mean Ratio of coadministered drug Cmax with/without EDURANT” value [1, 4] was 1.19 and the “Geometric Mean Ratio of coadministered drug Cmin with/without EDURANT” value [1, 4] was 1.24.

For `CC(C)c1c(C(=O)Nc2ccc(O)cc2)c(-c2ccccc2)c(-c2ccc(F)cc2)n1CC[C@@H](O)C[C@@H](O)CC(=O)O` [4-hydroxy-atorvastatin], the “Geometric Mean Ratio of coadministered drug AUC with/without EDURANT” value [1, 4] was 1.23 and the “Geometric Mean Ratio of coadministered drug Cmax with/without EDURANT” value [1, 4] was 1.28.

For `CCCc1nn(C)c2c(=O)[nH]c(-c3cc(S(=O)(=O)N4CCN(C)CC4)ccc3OCC)nc12` [Sildenafil], the “Geometric Mean Ratio of coadministered drug AUC with/without EDURANT” value [1, 6] was 0.97 and the “Geometric Mean Ratio of coadministered drug Cmax with/without EDURANT” value [1, 6] was 0.93.

With `O=c1[nH]cnc2c1ncn2[C@H]1CC[C@@H](CO)O1` [Didanosine] the “Geometric Mean Ratio of coadministered drug AUC with/without EDURANT” value [1, 4] was 1.12 and the “Geometric Mean Ratio of coadministered drug Cmax with/without EDURANT” value [1, 4] was 0.96.
